# From patent US11331271B2, “Buccal, sublingual and intranasal delivery of fospropofol” (The Johns Hopkins University, priority 2016, dated 2022)
# Entries after “also recorded” stand apart in the source; their conditions may differ.
# Key:
# [1] = rat, oral propofol; cited from earlier work
# [2] = Buccal delivery of fospropofol in monkeys: plasma and CSF levels; assay type: in vivo, monkey
# Procedure: In this example, monkeys were dosed with 50 mg fospropofol by buccal administration. Plasma and CSF were collected before treatment (graphed as t=0), 15 minutes, 30 minutes, 1 hr and 2 hr. Samples were analyzed for propofol and fospropofol by LCMS.
# [3] = Human Study 2: single ascending oral dose, plasma pharmacokinetics; assay type: in vivo
# Procedure: In human study 1, fospropofol disodium was formulated as a sterile aqueous solution at a concentration of 20 mg/mL. Each vial provided contained 20 mL of solution, suitable for intravenous injection. Fospropofol was administered as a single dose of 400 mg orally, directly into the duodenum by gastroscopy or intravenously over 10 min. In human study 2, fospropofol disodium in capsules (200 mg) or matching placebo was administered orally.
# A second single ascending dose study was subsequently performed to assess the safety, tolerability, and pharmacokinetics of oral administration of fospropofol as a capsule. This was a double-blind, randomized, crossover, placebo-controlled, single ascending dose study. Ten healthy volunteers were enrolled, 6 males and 4 females between 18 and 45 years of age inclusive with a body mass index between 18 and 28 kg/m^2. Each subject received four ascending oral doses of fospropofol disodium (200, 600, 1,000 and 1,200 mg) and one of placebo. Placebo was administered randomly, in one of the five periods. Subjects stayed in the clinical research unit over 3 days per treatment for five consecutive treatments. […] Pharmacokinetic parameters, safety and pharmacodynamic effect were assessed in a manner similar to that in Study 1 described above. […]
# Caco-2 cell monolayers = conditions: cited from earlier work
# patients = conditions: anesthetic induction doses; cited from earlier work
# [4] = tested on: rat chronic constrictive injury model of neuropathic pain; assay: Neuropathic pain studies in rats (thermal hyperalgesia, withdrawal latency); assay type: in vivo; conditions: for alleviation of thermal hyperalgesia: 45-60 min post-dose; for time course of analgesic effect: tested 1, 2 and 4 h after dosing
# Procedure: This study was performed as previously described (Vornov, et al., 2013). In brief, male Sprague-Dawley rats (200-250 g) were anesthetized with halothane. The common sciatic nerve on one hind limb was exposed by separating the biceps femoris from the gluteus superficialis. The nerve was subsequently isolated from the surrounding tissue and four ligatures (4.0 chromic gut) were tied loosely around it with about 1-mm spacing. On the other hind limb of the rat, the nerve was similarly isolated but no ligatures were placed, (sham surgery). Thermal pain sensitivity was evaluated using a plantar test apparatus according to previous methods (Hargreaves, et al., 1988). In brief, this involved applying a constant infrared stimulus to the plantar surface of the hind paw using a Basile Plantar apparatus (Ugo Basile, Vaarese, Italy). Withdrawal latency was measured as the time taken for the rat to withdraw its paw from the heat source to the nearest 0.1 s. The “difference score” was calculated by subtracting the average latency of the non-ligated versus ligated side. Animals were habituated to the test chambers (clear plastic compartment maintained in a quiet room) for several hours over 3-4 days, prior to any measurement. Baseline hyperalgesia was recorded 10-12 days post-surgery after the habituation. On test day, each animal received either fospropofol (50, 75 or 100 mg/kg) or vehicle (distilled water) via oral gavage in a volume of 2 mL/kg in a randomized and blinded fashion. Withdrawal latency measurements were then recorded five times for both the operated and sham hind paws of each rat starting from 45 to 60 min post dose. The final latency measurement represents a mean of the last four out of a total of five responses, each being taken at least 5 min apart on the same paw. The difference in response latency for each rat for each leg was calculated and used to determine the mean latency difference response time for each group.
# rats = assay: Sedative studies in rats (0-4 sedation score); assay type: in vivo, rat
# Procedure: The relative potency of fospropofol given via different administration routes was investigated in rats, using sedation as an end point. Intravenous fospropofol doses of 5-40 mg/kg were chosen based on previous studies (Schywalsky, et al., 2003). Based on expected lower oral bioavailability, doses of 100-400 mg/kg were chosen for the PO and ID studies. Following administration of fospropofol, two experimental observers blinded to the treatment, graded the behavior of the rats (n=2-3 per experimental group) every 5 min for a total of 120 min after administration. […] Scores were averaged across treatment groups per time point.
# [5] = Intranasal fospropofol in rats: plasma and brain levels; assay type: in vivo, rat
compound,measurement,setting,value
"CC(C)c1cccc(C(C)C)c1O [propofol, 2,6-diisopropylphenol]",bioavailability of propofol,[1],10%
same,highest propofol level in plasma,"[2]; 50 mg fospropofol buccal, at 2 hours",about 500 nM
same,propofol in CSF,"[2]; 50 mg fospropofol buccal, limit of quantitation 10 nM",only 2 samples are above the limit of quantitation
same,propofol exposure vs dose,"[3]; PO fospropofol capsules 200-1,200 mg",dose related increase
same,permeability,Caco-2 cell monolayers,highly permeable
same,"patients with respiratory consequences (reduction in tidal volume, apnea)",patients,up to 83%
CC(C)c1cccc(C(C)C)c1OCOP(=O)(O)O [fospropofol],alleviation of thermal hyperalgesia,[4]; 75 mg/kg PO,active in alleviating thermal hyperalgesia; also recorded: effective in reducing hyperalgesia
same,time course of analgesic effect,[4]; 75 mg/kg PO,losing activity by 2 h
same,time course of analgesic effect,"[4]; 75 mg/kg PO, listed as Fospropofol",effective only when tested at 1 h
same,alleviation of thermal hyperalgesia,[4]; 100 mg/kg PO,active in alleviating thermal hyperalgesia; also recorded: effective in reducing hyperalgesia
same,absolute latency of the ligated side vs vehicle,[4]; 1 hour after oral fospropofol,dose dependent increase
same,withdrawal latency on sham (non-ligated) side vs vehicle,[4]; PO fospropofol,no change in latencies; also recorded: did not change
same,time of fospropofol peak in plasma,[2]; 50 mg buccal,30 to 60 min
same,fospropofol plasma level by 2 hr,"[2]; 50 mg buccal, 2 hr",below the limit of quantification
same,concentration at 15 min,"[2]; monkey, CSF, other: buccal, 50 mg buccal, 15 minutes, read-out: CSF fospropofol, one high point",~850 nM
same,Cmax,"[2]; monkey, plasma, 50 mg buccal",~150 nM
same,dose inducing full sedation (average score 3.5 or higher),rats; ID,50 mg/kg
same,onset of sedation after administration,rats; ID,≤ 5 min
same,dose inducing full sedation (average score 3.5 or higher),rats; IV,40 mg/kg
same,onset of sedative effects,rats; IV 10-40 mg/kg,≤ 1 min
same,sedative effects abated after infusion,rats; IV 10-40 mg/kg,≤ 30 min
same,dose inducing full sedation (average score 3.5 or higher),rats; PO,300 to 400 mg/kg
same,onset of sedated behavior after dosing,rats; PO,5 to 10 min
same,degree of sedation,rats; PO 100-200 mg/kg,mild to moderate sedation
same,duration of sedation,rats; PO 100-200 mg/kg,1 to 2 h
same,duration of loss of consciousness,rats; PO 300 and 400 mg/kg,≤ 1 h
same,fospropofol in plasma after intranasal fospropofol,[5],appreciable plasma concentrations
same,fospropofol exposure vs dose,"[3]; PO capsules 200-1,200 mg",dose related increase
